# Source: patent US12428406B2 (PMV Pharmaceuticals, Inc., priority 2019, dated 2025)
# Biological target: T1, p53 Y220C (Homo sapiens, UniProt P04637, Y220C)
# T1 construct: The recombinant protein was a truncation mutant containing only amino acids 94-312 of p53; made in house; host or cells: E. coli
# Assay: In vitro DNA binding activity assay (HTRF / TR-FRET): stabilization of p53 Y220C and increase of its DNA binding activity
# Format: biochemical
# Conditions: recombinant His-tagged p53 Y220C DNA binding domain (aa 94-312), biotin-labeled consensus DNA, incubated at 27° C. or 29° C. for 60 min
# Method in brief: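 E. coli His-p53 Y220C + biotin consensus DNA; anti-His-APC/SA-Eu TR-FRET. SC150 vs no-compound.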
# T1 sequence (P04637 94-312, change not shown): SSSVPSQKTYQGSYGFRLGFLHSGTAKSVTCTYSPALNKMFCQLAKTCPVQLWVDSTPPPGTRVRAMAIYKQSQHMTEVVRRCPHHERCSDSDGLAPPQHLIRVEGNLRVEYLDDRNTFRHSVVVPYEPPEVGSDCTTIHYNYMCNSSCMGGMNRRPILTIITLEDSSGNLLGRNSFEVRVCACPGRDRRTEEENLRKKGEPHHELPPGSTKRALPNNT
row,SC150 (concentration of the compound required to increase the DNA binding activity by 50%),SMILES
1,+ (+ = 0 μM ≤ SC150 < 0.05 μM),"COc1cc(C(N)=O)c(F)cc1NCC#Cc1cc2c(NC3CCN(C)CC3)cccc2n1CC(F)(F)F [Compound 514A, 2-fluoro-5-methoxy-4-[(3-{4-[(1-methylpiperidin-4-yl)amino]-1-(2,2,2-trifluoroethyl)-1H-indol-2-yl}prop-2-yn-1-yl)amino]benzamide]"
2,+ (+ = 0 μM ≤ SC150 < 0.05 μM),"CCOc1cc(S(C)(=O)=O)ccc1NCC#Cc1cc2c(N[C@H]3CC[C@@H](N4CC5(COC5)C4)CC3)cccc2n1CC(F)(F)F [Compound 235A, 2-{3-[(2-ethoxy-4-methanesulfonyl-phenyl)amino]prop-1-yn-1-yl}-N-[(1S,4S)-4-{2-oxa-6-azaspiro[3.3]heptan-6-yl}cyclo-hexyl]-1-(2,2,2-trifluoroethyl)-1H-indol-4-amine]"
3,+ (+ = 0 μM ≤ SC150 < 0.05 μM),"COc1cc(S(C)(=O)=O)ccc1NCC#Cc1cc2c(N[C@H]3CCC[C@@H](N)C3)cccc2n1CC(F)(F)F (racemic) [Compound 27A, rac-(1R,3S)-N^1-(2-{3-[(4-methanesulfonyl-2-methoxyphenyl)amino]prop-1-yn-1-yl}-1-(2,2,2-trifluoroethyl)-1H-indol-4-yl)cyclohexane-1,3-diamine]"
4,+ (+ = 0 μM ≤ SC150 < 0.05 μM),"CNC(=O)c1cc(OC)c(NCC#Cc2cc3c(NC4CCN(CC(O)COC)CC4)cccc3n2CC(F)(F)F)cc1F (centres unmarked) [Compound 690A, 2-fluoro-4-{[3-(4-{[1-(2-hydroxy-3-methoxypropyl)piperidin-4-yl]amino}-1-(2,2,2-trifluoroethyl)-1H-indol-2-yl)prop-2-yn-1-yl]amino}-5-methoxy-N-methylbenzamide]"
5,+ (+ = 0 μM ≤ SC150 < 0.05 μM),"COc1cc(S(C)(=O)=O)ccc1NCC#Cc1cc2c(NC3CCN(C4CCOCC4)C3)cccc2n1CC(F)(F)F (centres unmarked) [Compound 458A, 2-{3-[(4-methanesulfonyl-2-methoxyphenyl)amino]prop-1-yn-1-yl}-N-[1-(oxan-4-yl)pyrrolidin-3-yl]-1-(2,2,2-trifluoroethyl)-1H-indol-4-amine]"
6,+ (+ = 0 μM ≤ SC150 < 0.05 μM),"CCC(=O)OC(COC)CN1CCC(Nc2cccc3c2cc(C#CCNc2ccc(S(C)(=O)=O)cc2OC)n3CC(F)(F)F)CC1 (centres unmarked) [Compound 602A, 1-{4-[(2-{3-[(4-methanesulfonyl-2-methoxyphenyl)amino]prop-1-yn-1-yl}-1-(2,2,2-trifluoroethyl)-1H-indol-4-yl)amino]piperidin-1-yl}-3-methoxypropan-2-yl propanoate]"
7,+ (+ = 0 μM ≤ SC150 < 0.05 μM),"CS(=O)(=O)c1ccc(NCC#Cc2cc3c(NC4CCN(C(=O)CO)CC4)cccc3n2CC(F)(F)F)c(O)c1 [Compound 731A, 2-hydroxy-1-{4-[(2-{3-[(2-hydroxy-4-methanesulfonylphenyl)amino]prop-1-yn-1-yl}-1-(2,2,2-trifluoroethyl)-1H-indol-4-yl)amino]piperidin-1-yl}ethan-1-one]"
8,+ (+ = 0 μM ≤ SC150 < 0.05 μM),"CNC(=O)c1ccc(NCC#Cc2cc3c(N[C@H]4CC[C@H](N(C)C)CC4)cccc3n2CC(F)(F)F)c(OCCC#N)c1 [Compound 114A, 3-(2-cyanoethoxy)-N-methyl-4-{[3-(4-{[(1R,4R)-4-(dimethyl-amino)cyclohexyl]amino}-1-(2,2,2-trifluoro-ethyl)-1H-indol-2-yl)prop-2-yn-1-yl]amino}benzamide]"
9,+ (+ = 0 μM ≤ SC150 < 0.05 μM),"COc1cc(S(C)(=O)=O)ccc1NCC#Cc1cc2c(N[C@H]3CCOC[C@H]3OC)cccc2n1CC(F)(F)F [Compound 1024A, 2-(3-((2-methoxy-4-(methylsulfonyl)phenyl)amino)prop-1-yn-1-yl)-N-((3S,4S)-3-methoxytetrahydro-2H-pyran-4-yl)-1-(2,2,2-trifluoroethyl)-1H-indol-4-amine]"
10,+ (+ = 0 μM ≤ SC150 < 0.05 μM),"COc1cc(S(=O)(=O)N(C)CCO)ccc1NCC#Cc1cc2c(NC3CCN(C4CCOCC4)CC3)cccc2n1CC(F)(F)F [Compound 555A, N-(2-hydroxyethyl)-3-methoxy-N-methyl-4-{[3-(4-{[1-(oxan-4-yl)piperidin-4-yl]amino}-1-(2,2,2-trifluoroethyl)-1H-indol-2-yl)prop-2-yn-1-yl]amino}benzene-1-sulfonamide]"
11,+ (+ = 0 μM ≤ SC150 < 0.05 μM),"COc1cc(S(N)(=O)=O)ccc1NCC#Cc1cc2c(N[C@@H]3C[C@@H](C)O[C@@H](C)C3)cccc2n1CC(F)(F)F [Compound 1031A, 3-methoxy-4-{[3-(4-{[(2R,4S,6S)-2,6-dimethyloxan-4-yl]amino}-1-(2,2,2-trifluoroethyl)-1H-indol-2-yl)prop-2-yn-1-yl]amino}benzene-1-sulfonamide]"
12,+ (+ = 0 μM ≤ SC150 < 0.05 μM),"COc1cc(S(=O)(=O)N(C)C)ccc1NCC#Cc1cc2c(N[C@H]3CC[C@H](N(C)C)CC3)cccc2n1CC(F)(F)F [Compound 127A, 3-methoxy-N,N-dimethyl-4-{[3-(4-{[(1R,4R)-4-(dimethylamino)cyclohexyl]amino}-1-(2,2,2-trifluoroethyl)-1H-indol-2-yl)prop-2-yn-1-yl]amino}benzene-1-sulfonamide]"
13,+ (+ = 0 μM ≤ SC150 < 0.05 μM),COCC(O)CN1CCC(Nc2cccc3c2cc(C#CCNc2ccc(S(=O)(=O)N(C)C)cc2OC)n3CC(F)(F)F)CC1 (centres unmarked) [Compound 622A]
14,+ (+ = 0 μM ≤ SC150 < 0.05 μM),"COc1cc(C(=O)N(C)C)ncc1NCC#Cc1cc2c(N[C@@H]3CCN(C)C[C@@H]3F)cccc2n1CC(F)(F)F [Compound 1064A, 5-{[3-(4-{[(3S,4R)-3-fluoro-1-methylpiperidin-4-yl]amino}-1-(2,2,2-trifluoroethyl)-1H-indol-2-yl)prop-2-yn-1-yl]amino}-4-methoxy-N,N-dimethylpyridine-2-carboxamide]"
15,+ (+ = 0 μM ≤ SC150 < 0.05 μM),"COC[C@H](O)CN1CC[C@@H](Nc2cccc3c2cc(C#CCNc2ccc(S(N)(=O)=O)cc2OC)n3CC(F)(F)F)[C@@H](F)C1 [Compound 869A, 4-{[3-(4-{[(3S,4R)-3-fluoro-1-[(2R)-2-hydroxy-3-methoxypropyl]piperidin-4-yl]amino}-1-(2,2,2-trifluoroethyl)-1H-indol-2-yl)prop-2-yn-1-yl]amino}-3-methoxybenzene-1-sulfonamide]"
16,+ (+ = 0 μM ≤ SC150 < 0.05 μM),"CCC(=O)OC(C)CN1CCC(Nc2cccc3c2cc(C#CCNc2ccc(S(C)(=O)=O)cc2OC)n3CC(F)(F)F)CC1 (racemic) [Compound 590A, 1-{4-[(2-{3-[(4-methanesulfonyl-2-methoxyphenyl)amino]prop-1-yn-1-yl}-1-(2,2,2-trifluoroethyl)-1H-indol-4-yl)amino]piperidin-1-yl}propan-2-yl propanoate]"
17,+ (+ = 0 μM ≤ SC150 < 0.05 μM),"COc1cc(S(N)(=O)=O)ccc1NCC#Cc1cc2c(N[C@H]3CCO[C@@H](C)C3)cccc2n1CC(F)(F)F [Compound 1019A, 3-methoxy-4-{[3-(4-{[(2S,4S)-2-methyloxan-4-yl]amino}-1-(2,2,2-trifluoroethyl)-1H-indol-2-yl)prop-2-yn-1-yl]amino}benzene-1-sulfonamide]"
18,+ (+ = 0 μM ≤ SC150 < 0.05 μM),"COC(=O)c1ccc(NCC#Cc2cc3c(N[C@H]4CCN(C)C[C@H]4F)cccc3n2CC(F)(F)F)c(OC)c1 (stereo in doubt) [Compound 794A, methyl 4-{[3-(4-{[(3R,4S)-3-fluoro-1-methylpiperidin-4-yl]amino}-1-(2,2,2-trifluoroethyl)-1H-indol-2-yl)prop-2-yn-1-yl]amino}-3-methoxybenzoate]"
19,+ (+ = 0 μM ≤ SC150 < 0.05 μM),"CCNC(=O)c1ccc(NCC#Cc2cc3c(NC4CCN(CC(O)COC)CC4)cccc3n2CC(F)(F)F)c(OC)c1 (centres unmarked) [Compound 655A, N-ethyl-4-{[3-(4-{[1-(2-hydroxy-3-methoxypropyl)piperidin-4-yl]amino}-1-(2,2,2-trifluoroethyl)-1H-indol-2-yl)prop-2-yn-1-yl]amino}-3-methoxybenzamide]"
20,+ (+ = 0 μM ≤ SC150 < 0.05 μM),"COc1cc(S(C)(=O)=O)ccc1NCC#Cc1cc2c(NC3CC4(COC4)C3)cccc2n1CC(F)(F)F [Compound 20A, 2-{3-[(4-methane-sulfonyl-2-methoxy-phenyl)amino]prop-1-yn-1-yl}-N-{2-oxaspiro[3.3]heptan-6-yl}-1-(2,2,2-trifluoroethyl)-1H-indol-4-amine]"
21,+ (+ = 0 μM ≤ SC150 < 0.05 μM),"CCC(=O)Oc1cc(S(C)(=O)=O)ccc1NCC#Cc1cc2c(NC3CCOCC3)cccc2n1CC(F)(F)F [Compound 1014A, 5-methanesulfonyl-2-[(3-{4-[(oxan-4-yl)amino]-1-(2,2,2-trifluoroethyl)-1H-indol-2-yl}prop-2-yn-1-yl)amino]phenyl propanoate]"
22,+ (+ = 0 μM ≤ SC150 < 0.05 μM),"CNC(=O)c1ccc(NCC#Cc2cc3c(N[C@H]4CC[C@@H](N5CCC6(CC5)COC6)CC4)cccc3n2CC(F)(F)F)c(OC)c1 [Compound 376A, 3-methoxy-N-methyl-4-{[3-(4-{[(1S,4S)-4-{2-oxa-7-azaspiro[3.5]nonan-7-yl}cyclohexyl]amino}-1-(2,2,2-trifluoroethyl)-1H-indol-2-yl)prop-2-yn-1-yl]amino}benzamide]"
23,+ (+ = 0 μM ≤ SC150 < 0.05 μM),CN1CC[C@H](Nc2cccc3c2cc(C#CCNc2ccc(S(C)(=O)=O)cc2OCF)n3CC(F)(F)F)[C@H](F)C1 [Compound 841A]
